Data as given in patent US12018021B2 (UCB Biopharma SRL, priority 2018, dated 2024).

Target: IgE-Tb / FcεRIα-Y131A-AF488 (Homo sapiens, UniProt P01854)
Assay: IgE-Tb / FcεRIα-Y131A-AF488 FRET assay (protocol for examples 1 to 233)
Format: binding
Conditions: examples 1 to 233: 5 nM IgE-Tb, 25 nM FcεRIα-Y131A-AF488, incubated 2 hours at room temperature; read-out: Y131A FRET IC50 range
In short: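 TR-FRET displacement with 5 nM IgE-Tb and 25 nM FcεRIα-Y131A-AF488 (final), 10-point 3-fold compound dilutions from typically 10 μM top, 2% DMSO, 2 h at room temperature. Excitation 330 nm, 520/495 nm emission ratio; MIN set with 200 nM unlabelled FcεRIα. IC50 from four-parameter logistic fit of percent inhibition.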

Chain of IgE-Tb / FcεRIα-Y131A-AF488 (P01854 1-427 limits assumed, stated change not applied): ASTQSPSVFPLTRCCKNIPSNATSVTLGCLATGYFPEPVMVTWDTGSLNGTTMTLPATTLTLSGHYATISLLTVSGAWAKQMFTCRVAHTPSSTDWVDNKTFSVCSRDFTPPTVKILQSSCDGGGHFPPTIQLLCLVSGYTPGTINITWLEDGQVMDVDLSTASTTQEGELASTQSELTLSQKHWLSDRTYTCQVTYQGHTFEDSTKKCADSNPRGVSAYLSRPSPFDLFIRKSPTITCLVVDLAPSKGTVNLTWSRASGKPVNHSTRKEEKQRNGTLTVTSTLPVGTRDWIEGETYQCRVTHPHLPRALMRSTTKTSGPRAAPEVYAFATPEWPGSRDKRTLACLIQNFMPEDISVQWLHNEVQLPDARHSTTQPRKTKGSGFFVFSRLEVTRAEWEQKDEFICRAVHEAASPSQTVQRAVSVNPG

CC(C)(C)OC(=O)NC1CCCc2c1sc(NC(=O)C1CC1)c2C(=O)NCC1CC1 (stereo not drawn) [Example 97, tert-Butyl N-[2-(cyclopropanecarbonylamino)-3-(cyclopropylmethylcarbamoyl)-4,5,6,7-tetrahydrobenzothiophen-7-yl]carbamate]
IC50: 1000 to 10000 nM

CCNC(=O)C1CCCc2c1sc(NC(=O)C1CC1)c2C(=O)NCC1CC1 (stereo not drawn) [Example 98, 2-(Cyclopropanecarbonylamino)-N3-(cyclopropylmethyl)-N7-ethyl-4,5,6,7-tetrahydrobenzothiophene-3,7-dicarboxamide]
IC50: 10000 to 50000 nM

O=C(NCC1CC1)c1c(NC(=O)C2CC2)sc2c1CC(c1cc[nH]n1)CC2 (stereo not drawn) [Example 100, 2-(Cyclopropanecarbonylamino)-N-(cyclopropylmethyl)-5-(1H-pyrazol-3-yl)-4,5,6,7-tetrahydrobenzothiophene-3-carboxamide]
IC50: < 1000 nM

CCOC(=O)c1c(NC(=O)C2CC2)sc2c1CCCC2O (stereo not drawn) [Example 103, Ethyl 2-(cyclopropanecarbonylamino)-7-hydroxy-4,5,6,7-tetrahydrobenzothiophene-3-carboxylate]
IC50: 10000 to 50000 nM

N#Cc1ncn([C@H]2CCc3sc(NC(=O)C4CC4)c(C(=O)NCC4CC4)c3C2)c1N [Example 104, (5S)-5-(5-Amino-4-cyano-imidazol-1-yl)-2-(cyclopropanecarbonylamino)-N-(cyclopropylmethyl)-4,5,6,7-tetrahydrobenzothiophene-3-carboxamide]
IC50: < 1000 nM

Cc1cc(Nc2nncn2[C@H]2CCc3sc(NC(=O)C4CC4)c(C(=O)NCC4CC4)c3C2)n(C)n1 [Example 106, (5S)-2-(Cyclopropanecarbonylamino)-N-(cyclopropylmethyl)-5-[3-[(2,5-dimethylpyrazol-3-yl)amino]-1,2,4-triazol-4-yl]-4,5,6,7-tetrahydrobenzothiophene-3-carboxamide]
IC50: < 1000 nM

Cc1cc(-n2cnnc2N[C@H]2CCc3sc(NC(=O)C4CC4)c(C(=O)NCC4CC4)c3C2)n(C)n1 [Example 107, (5S)-2-(Cyclopropanecarbonylamino)-N-(cyclopropylmethyl)-5-[[4-(2,5-dimethylpyrazol-3-yl)-1,2,4-triazol-3-yl]amino]-4,5,6,7-tetrahydrobenzothiophene-3-carboxamide]
IC50: 1000 to 10000 nM

Cc1cc(Nc2nncn2[C@H]2CCc3sc(NC(=O)C4CC4)c(C(=O)NCC(C)C)c3C2)n(C)n1 [Example 108, (5S)-2-(Cyclopropanecarbonylamino)-5-[3-[(2,5-dimethylpyrazol-3-yl)amino]-1,2,4-triazol-4-yl]-N-isobutyl-4,5,6,7-tetrahydrobenzothiophene-3-carboxamide]
IC50: < 1000 nM

NC1CCc2sc(NC(=O)C3CC3)c(C(=O)NCC3CC3)c2C1 (stereo not drawn) [Example 109, 5-Amino-2-(cyclopropanecarbonylamino)-N-(cyclopropylmethyl)-4,5,6,7-tetrahydrobenzothiophene-3-carboxamide]
IC50: 10000 to 50000 nM

N#CN=C(Nc1ccccc1)NC1CCc2sc(NC(=O)C3CC3)c(C(=O)NCC3CC3)c2C1 (stereo not drawn) [Example 110, 5-[[N′-Cyano-N-phenyl-carbamimidoyl]amino]-2-(cyclopropanecarbonylamino)-N-(cyclopropylmethyl)-4,5,6,7-tetrahydrobenzothiophene-3-carboxamide]
IC50: < 1000 nM

CC1(CNc2nncn2[C@H]2CCc3sc(NC(=O)C4CC4)c(C(=O)NCC4CC4)c3C2)CC1 [Example 112, (5S)-2-(Cyclopropanecarbonylamino)-N-(cyclopropylmethyl)-5-[3-[(1-methylcyclopropyl)methylamino]-1,2,4-triazol-4-yl]-4,5,6,7-tetrahydrobenzothiophene-3-carboxamide]
IC50: < 1000 nM

CC(=O)Nc1cncn1[C@H]1CCc2sc(NC(=O)C3CC3)c(C(=O)NCC3CC3)c2C1 [Example 113, (5S)-5-(5-Acetamidoimidazol-1-yl)-2-(cyclopropanecarbonylamino)-N-(cyclopropylmethyl)-4,5,6,7-tetrahydrobenzothiophene-3-carboxamide]
IC50: < 1000 nM

O=C(NCC1CC1)c1c(NC(=O)C2CC2)sc2c1C[C@@H](n1cnnc1Nc1ccncc1)CC2 [Example 115, (5S)-2-(Cyclopropanecarbonylamino)-N-(cyclopropylmethyl)-5-[3-(4-pyridylamino)-1,2,4-triazo-4-yl]-4,5,6,7-tetrahydrobenzothiophene-3-carboxamide]
IC50: < 1000 nM

COc1ccc(NC(=NC#N)NC2CCc3sc(NC(=O)C4CC4)c(C(=O)NCC4CC4)c3C2)cc1OC (stereo not drawn) [Example 116, 5-[[N′-Cyano-N-(3,4-dimethoxyphenyl)carbamimidoyl]amino]-2-(cyclopropanecarbonylamino)-N-(cyclopropylmethyl)-4,5,6,7-tetrahydrobenzothiophene-3-carboxamide]
IC50: < 1000 nM

CCOC(=O)c1ncn([C@H]2CCc3sc(NC(=O)C4CC4)c(C(=O)NCC4CC4)c3C2)c1N [Example 117, Ethyl 5-amino-1-[(5S)-2-(cyclopropanecarbonylamino)-3-(cyclopropylmethylcarbamoyl)-4,5,6,7-tetrahydrobenzothiophen-5-yl]imidazole-4-carboxylate]
IC50: < 1000 nM

O=C(NCC1CC1)c1c(NC(=O)C2CC2)sc2c1CC(Nc1noc(=O)[nH]1)CC2 (stereo not drawn) [Example 119, 2-(Cyclopropanecarbonylamino)-N-(cyclopropylmethyl)-5-[(5-oxo-4H-1,2,4-oxadiazol-3-yl)amino]-4,5,6,7-tetrahydrobenzothiophene-3-carboxamide]
IC50: < 1000 nM

CCNc1c(NC2CCc3sc(NC(=O)C4CC4)c(C(=O)NCC4CC4)c3C2)c(=O)c1=O (stereo not drawn) [Example 120, 2-(Cyclopropanecarbonylamino)-N-(cyclopropylmethyl)-5-[[2-(ethylamino)-3,4-dioxo-cyclobuten-1-yl]amino]-4,5,6,7-tetrahydrobenzothiophene-3-carboxamide]
IC50: < 1000 nM

N#CN=C(NCC(F)(F)F)NC1CCc2sc(NC(=O)C3CC3)c(C(=O)NCC3CC3)c2C1 (stereo not drawn) [Example 121, 5-[[N′-cyano-N-(2,2,2-trifluoroethyl)carbamimidoyl]amino]-2-(cyclopropanecarbonylamino)-N-(cyclopropylmethyl)-4,5,6,7-tetrahydrobenzothiophene-3-carboxamide]
IC50: < 1000 nM

CCNc1nncn1[C@H]1CCc2sc(NC(=O)C3CC3)c(C(=O)NCC3CC3)c2C1 [Example 122, (5S)-2-(cyclopropanecarbonylamino)-N-(cyclopropylmethyl)-5-[3-(ethylamino)-1,2,4-triazol-4-yl]-4,5,6,7-tetrahydrobenzothiophene-3-carboxamide]
IC50: < 1000 nM

CCNC(=N[N+](=O)[O-])NC1CCc2sc(NC(=O)C3CC3)c(C(=O)NCC3CC3)c2C1 (stereo not drawn) [Example 123, 2-(cyclopropanecarbonylamino)-N-(cyclopropylmethyl)-5-[(N-ethyl-N′-nitro-carbamimidoyl)amino]-4,5,6,7-tetrahydrobenzothiophene-3-carboxamide]
IC50: < 1000 nM

O=C(NCC1CC1)c1c(NC(=O)C2CC2)sc2c1C[C@@H](n1cnnc1Nc1cccnc1)CC2 [Example 124, (5S)-2-(Cyclopropanecarbonylamino)-N-(cyclopropylmethyl)-5-[3-(3-pyridylamino)-1,2,4-triazol-4-yl]-4,5,6,7-tetrahydrobenzothiophene-3-carboxamide]
IC50: < 1000 nM
